Results on 15 compounds are retold here after patent US20060100179A1, “Compositions and methods for use in targeting vascular destruction” (priority 2002, published 2006).

Like-named read-outs stand apart in the source and are kept apart here.

Series [1] concerns HDF (human neonatal dermal fibroblasts). Put plainly: Cell survival by clonogenic assay (colony count or MTT) in HDF. How it is done: (§1) Cell culture. Four commercially available human cell lines were grown in the indicated media below in 5% CO2, 80% humidity and 37EC: • 1. HL60 human leukemic cells, a pro-apoptotic cell line—cultured in RPMI 1640 fortified with 10% fetal calf serum. • 2. K562 human leukemic cells, an apoptotic-resistant cell line—cultured in RPMI 1640 fortified with 10% fetal calf serum. • 3. Human neonatal microvascular endothelial cells (HMVEC)—cultured in medium 131+microvascular growth supplement (MVGS)+attachment factor (AF)=500 ml+25 ml (AF is added 2-3 ml/T-25 flask; all reagents supplied by Cascade Biologics, Inc., Portland, Oreg.). • 4. Human neonatal dermal fibroblasts (HDF)—cultured in medium 106+low serum growth supplement (LSGS)=500 ml+10 ml (Cascade Biologics, Inc.).
Cell survival by clonogenic assay. This assay is based on a description reported by Schweitzer et al. (Expt. Haematol. 21: 573-578, 1993) with slight modifications. […] After 5 days of incubation under the standard culture conditions stated above, colonies (>40 cells) were counted by an inverted light microscope or estimated by MTT assay. IC50 values were obtained from the fitted curves of percentage of the control versus the drug concentrations.
Experiment 1. HLGO, K562, HDF, and HMVEC cells were either cultured in 96-well plates at the indicated concentrations (FIGS. 2A and 2B) for 5 days in the presence of A4 prodrug, or after 2 hours exposure the drug-containing media was removed, fresh media added, and the cells cultured for an additional 5 days. Clonogenic growth was recorded after 5 days incubation for all treatments.
Experiment 2. HMVEC and HDF were cultured in 96-well microtiter plates initially containing 800 cells/well. The cells were cultured for 1 hour in the presence of the indicated concentrations of A4 prodrug ∀1 unit of alkaline phosphatase. The medium was removed, the cells washed, and fresh medium added, and the cells were incubated for an additional 5 days. Clonogenic growth was then established by the MTT assay.
The combretastatins are a family of naturally occurring tubulin binding agents comprising an A-,B-,C- and D- series of structures (U.S. Pat. Nos. 4,940,726; 4,996,237; 5,409,953; and 5,569,786). […] The compounds were added to microcultures in DMSO (i.e <0.5%) and toxicity was evaluated by MTT assay after 5-7 days in culture.
All of the compounds were evaluated for toxicity after a one-hour exposure in microculture and assayed for cytotoxicity by MTT assay after an additional 5 days' incubation in culture.

Series [2] has as its system HMVEC (human neonatal microvascular endothelial cells). Put plainly: Cell survival by clonogenic assay (colony count or MTT) in HMVEC. The following applies: for clonogenic cytotoxicity, HMVEC, limited exposure: exposure limited to 2 hours, clonogenic cytotoxicity estimated at 5 days (FIG. 2A); for clonogenic toxicity to HMVEC after 1 hour exposure versus 6 hours: 1 and 6 hours exposure, washed, 3 more days, MTT assay (FIG. 5). How it is done:
as §1
Cell survival by clonogenic assay. This assay is based on a description reported by Schweitzer et al. (Expt. Haematol. 21: 573-578, 1993) with slight modifications. […] After 5 days of incubation under the standard culture conditions stated above, colonies (>40 cells) were counted by an inverted light microscope or estimated by MTT assay. IC50 values were obtained from the fitted curves of percentage of the control versus the drug concentrations. […]
The combretastatins are a family of naturally occurring tubulin binding agents comprising an A-,B-,C- and D- series of structures (U.S. Pat. Nos. 4,940,726; 4,996,237; 5,409,953; and 5,569,786). […] The compounds were added to microcultures in DMSO (i.e <0.5%) and toxicity was evaluated by MTT assay after 5-7 days in culture. […]

Series [3] deals with HL60 human leukemic cells. Put plainly: Cell survival by clonogenic assay in HL-60. The class given is cell-based. From the text:
(§2) Cell survival by clonogenic assay.

In series [4] the test system is K562 human leukemic cells. The series can be described thus: Cell survival by clonogenic assay in K562. The class given is cell-based. The following applies: 5 days exposure (FIG. 2B); read-out: IC50 clonogenic cytotoxicity, K562.
Text: as §2

Series [5] relates to ocular vessels. The series can be described thus: Ocular neovascularization induced by lipid hydroperoxide (LHP) in rabbit eyes. The class given is in vivo. The conditions noted are these: i.v. 40 mg/kg once a day for five days, eyes examined seven days later. How it is done: To simulate pathogenic ocular angiogenesis, ocular neovascularization was induced by administration of lipid hydroperoxide (LHP) by intra-corneal injection at a dosage of 30 μg to rabbit eyes. Seven to 14 days later, ocular vessels formed in the injected eyes due to LHP insult. The subjects were divided into two groups; those of one group were given combretastatin A4 disodium phosphate by intravenous administration at a dosage of 40 mg/kg once a day for five days, while a vehicle without combretastatin A4 disodium phosphate was administered to the other group by i.v. administration as a dosage of water for the same time period. The eyes of both groups were examined seven days later.

The mark [6] stands for this setting: read-out: IC50 clonogenic toxicity values, HDF, compounds added in DMSO (<0.5%), MTT assay after 5-7 days in culture.
Setting [7] is: read-out: IC50 clonogenic toxicity values, HMVEC, compounds added in DMSO (<0.5%), MTT assay after 5-7 days in culture.
[8] abbreviates: compounds added in DMSO (<0.5%), MTT assay after 5-7 days in culture, read-out: IC50 clonogenic toxicity values, HL-60.
Setting [9] is: read-out: IC50 values HDF, one-hour exposure, MTT assay after additional 5 days' incubation.
[10] abbreviates: read-out: IC50 values HMVEC, one-hour exposure, MTT assay after additional 5 days' incubation.

Take `COc1ccc(CCc2cc(OC)c(OC)c(OC)c2)c(O)c1O` [Combretastatin B1, reference compound]: the IC50 – broadly, the concentration that inhibits the measured activity by half – is 200 to 300 nM in series [1] (setting [6]), 200 to 300 nM in series [2] (setting [7]) and 500 nM in series [3] (setting [8]).
Regarding `COc1ccc(/C=C\c2cc(OC)c(OC)c(OC)c2)cc1OP(=O)([O-])[O-].[Na+].[Na+]` [Combretastatin A4 Na2PO4, combretastatin A4 disodium phosphate], the “cytotoxicity to HDF with added alkaline phosphatase, compared with HMVEC” value in series [1] (1 hour exposure, 1 unit alkaline phosphatase added (FIG. 3)) was “the same for HMVEC and HDF”. Moreover, the “cytotoxicity to HDF without added alkaline phosphatase” value in series [1] (1 hour exposure, no added alkaline phosphatase (FIG. 3)) is reported as “lack of cytotoxicity”. In addition, the IC50 was 1.5 to 2.5 nM in series [1] (read-out: IC50 clonogenic cytotoxicity, HDF, 5 days exposure (FIG. 2B)); over 500 nM in series [1] (setting [9]); 1.5 to 2.5 nM in series [2] (read-out: IC50 clonogenic cytotoxicity, HMVEC, 5 days exposure (FIG. 2B)); 75 to 150 nM in series [2] (setting [10]); 1.5 to 2.5 nM in series [3] (5 days exposure (FIG. 2B), read-out: IC50 clonogenic cytotoxicity, HL60); 1.5 to 2.5 nM in series [4]. In addition, the “clonogenic cytotoxicity, HMVEC, limited exposure” value in series [2] was “only HMVEC showed IC50 cytotoxicity”; in series [2] (listed as A4 prodrug), “quite sensitive”. Also, the reduction of vessels in series [5] is at least 40%.
For the compound `COc1ccc(CCc2cc(O)c(OC)c(OC)c2)cc1O` [Combretastatin B2, reference compound], the values for the IC50 in series [1] (setting [6]), in series [2] (setting [7]) and in series [3] (setting [8]) were 1100 nM, 800 to 1000 nM and 125 nM, respectively.
For the compound Combretastatin A1 Piperazine PO4, the IC50 in series [1] (setting [9]) lay within 1000 to 2000 nM; in series [2] (setting [10]), 10000 to 15000 nM.
Consider “Amino Combretastatin A4 Phosphoroamidate”, for which the 50% inhibitory concentration (IC50) in series [1] (setting [9]) is 15000 to 20000 nM; in series [2] (setting [10]), 8000 to 10000 nM.
Regarding Combretastatin A1 Na2PO4, the 50% inhibitory concentration (IC50) in series [1] (setting [9]) was 5000 to 10000 nM; in series [2] (setting [10]) it was 10000 to 15000 nM.
In the same order, the values of Combretastatin A1 Nicotinamide PO4 are over 10000 nM and 10000 to 15000 nM.
Regarding Pancratistatin Na2PO4, the results for the half-inhibitory concentration (IC50) in series [1] (setting [9]) and in series [2] (setting [10]) were 60000 to 80000 nM and 20000 to 25000 nM, respectively.
As for `CC(=O)O[C@@]12CO[C@@H]1C[C@H](O)[C@@]1(C)C(=O)[C@H](O)C3=C(C)[C@@H](OC(=O)[C@H](O)[C@@H](NC(=O)OC(C)(C)C)c4ccccc4)C[C@@](O)([C@@H](OC(=O)c4ccccc4)[C@H]21)C3(C)C` [taxotere, reference compound], the “clonogenic toxicity to HMVEC after 1 hour exposure versus 6 hours” value in series [2] is given as “did not induce maximum toxicity”.
As to `CC(=O)O[C@H]1C(=O)[C@@]2(C)[C@H]([C@H](OC(=O)c3ccccc3)[C@]3(O)C[C@H](OC(=O)[C@H](O)[C@@H](NC(=O)c4ccccc4)c4ccccc4)C(C)=C1C3(C)C)[C@]1(OC(C)=O)CO[C@@H]1C[C@@H]2O` [taxol, reference compound], in series [2], the “clonogenic toxicity to HMVEC after 1 hour exposure versus 6 hours” value is “did not induce maximum toxicity”.
As to `COc1ccc(/C=C\c2cc(O)c(OC)c(OC)c2)cc1O` [Combretastatin A3, reference compound], the values for the IC50 in series [1] (setting [6]), in series [2] (setting [7]) and in series [3] (setting [8]) were 8 to 10 nM, over 12 nM and 5 nM, respectively.
`COc1ccc(/C=C\c2cc(OC)c(OC)c(OC)c2)c(O)c1O` [Combretastatin A1]: the IC50 was 20 nM in series [1] (setting [6]), 500 to 1000 nM in series [1] (setting [9]), 500 nM in series [2] (setting [7]) and 10000 to 15000 nM in series [2] (setting [10]). Besides, the “clonogenic toxicity to HMVEC after 1 hour exposure versus 6 hours” value in series [2] was “did not induce maximum toxicity”.
For `O=C1N[C@H]2[C@H](O)[C@H](O)[C@@H](O)[C@H](O)[C@@H]2c2cc3c(c(O)c21)OCO3` [Pancratistatin], the IC50 in series [1] (Homo sapiens, Fibroblast, read-out: IC50 values HDF) was 20000 nM; in series [2] (Homo sapiens, HMVEC, read-out: IC50 values HMVEC), 20000 to 25000 nM.
As for `COc1ccc(/C=C\c2cc(OC)c(OC)c(OC)c2)cc1O` [Combretastatin A4], the IC50 in series [1] (setting [6]) was 1 to 2 nM; in series [1] (setting [9]), 50 nM; in series [2] (setting [7]), 1 to 2 nM; in series [2] (setting [10]), 75 to 150 nM; in series [3] (setting [8]), 1 to 2 nM.
For the compound `COc1ccc(/C=C\c2cc(OC)c3c(c2)OCO3)cc1O` [Combretastatin A2, reference compound], the IC50 is 25 to 35 nM in series [1] (setting [6]), 30 to 40 nM in series [2] (setting [7]) and 15 nM in series [3] (setting [8]).
